Experimental data: ChEMBL document CHEMBL4665887, “Identification, Structure-Activity Relationships of Marine-Derived Indolocarbazoles, and a Dual PKCθ/δ Inhibitor with Potent Antipancreatic Cancer Efficacy” (J Med Chem, 2020)

Tests used:
[1] = Toxicity in BALB/c mouse model of patient-derived xenograft implanted with patient-derived pancreatic cancer cells assessed as effect on body weight at 30 mg/kg, ip QD for 18 days relative to control; assay type: organism-based; details: in vivo, 432 h, time 18 day
BXPC-3 [2] = assay: Antitumor activity against human BXPC-3 cells xenografted in nude BALB/c mouse assessed as inhibition of tumor growth at 30 mg/kg, ip QD for 18 days relative to control; assay type: functional; details: BXPC-3, ip, 432 h, time 18 day, read-out: TGI
[3] = Toxicity in nude BALB/c mouse xenografted with human BXPC-3 cells assessed as effect on body weight level at 30 mg/kg, ip QD for 18 days relative to control; assay type: organism-based; details: in vivo, 432 h, time 18 day
[4] = Antitumor activity against patient-derived pancreatic cancer cells xenografted in BALB/c mouse model of patient-derived xenograft assessed as inhibition of tumor growth at 30 mg/kg, ip QD for 18 days relative to control; assay type: functional; details: Homo sapiens, Pancreatic cancer cell, 432 h, time 18 day, read-out: TGI
[5] = Toxicity in BALB/c mouse model of patient-derived xenograft implanted with patient-derived pancreatic cancer cells assessed as effect on normal anatomical structures of heart at 30 mg/kg, ip QD for 18 days relative to control; assay type: organism-based; details: in vivo, 432 h, time 18 day
[6] = Toxicity in BALB/c mouse model of patient-derived xenograft implanted with patient-derived pancreatic cancer cells assessed as effect on normal anatomical structures of liver at 30 mg/kg, ip QD for 18 days relative to control; assay type: organism-based; details: in vivo, 432 h, time 18 day
[7] = Toxicity in BALB/c mouse model of patient-derived xenograft implanted with patient-derived pancreatic cancer cells assessed as effect on normal anatomical structures of lung at 30 mg/kg, ip QD for 18 days relative to control; assay type: organism-based; details: in vivo, 432 h, time 18 day
[8] = Toxicity in BALB/c mouse model of patient-derived xenograft implanted with patient-derived pancreatic cancer cells assessed as effect on normal anatomical structures of spleen at 30 mg/kg, ip QD for 18 days relative to control; assay type: organism-based; details: in vivo, 432 h, time 18 day
[9] = Toxicity in BALB/c mouse model of patient-derived xenograft implanted with patient-derived pancreatic cancer cells assessed as effect on normal anatomical structures of kidney at 30 mg/kg, ip QD for 18 days relative to control; assay type: organism-based; details: in vivo, 432 h, time 18 day
[10] = Toxicity in BALB/c mouse model of patient-derived xenograft implanted with patient-derived pancreatic cancer cells assessed as effect on normal anatomical structures of heart at 6 mg/kg, iv dosed once every 2 days for 18 days relative to control; assay type: organism-based; details: in vivo, 432 h, time 18 day
[11] = target: Protein kinase C theta type (Homo sapiens, UniProt Q04759); assay: Inhibition of PKCtheta (unknown origin) by HTRF assay
BXPC-3 [12] = assay: Antitumor activity against human BXPC-3 cells xenografted in nude BALB/c mouse assessed as inhibition of tumor growth at 6 mg/kg, iv QD for 18 days relative to control; assay type: functional; details: BXPC-3, iv, 432 h, time 18 day, read-out: TGI
[13] = Toxicity in nude BALB/c mouse xenografted with human BXPC-3 cells assessed as effect on body weight level at 6 mg/kg, iv QD for 18 days relative to control; assay type: organism-based; details: in vivo, 432 h, time 18 day
BXPC-3 [14] = assay: Cytotoxicity in human BXPC-3 cells assessed as reduction in cell viability incubated for 24 hrs by CCK8 assay; assay type: functional, cell-based; details: BXPC-3, 24 h
ASPC1 = assay: Cytotoxicity in human ASPC1 cells assessed as reduction in cell viability incubated for 24 hrs by CCK8 assay; assay type: functional, cell-based; details: ASPC1, 24 h
A549 = assay: Cytotoxicity in human A549 cells assessed as reduction in cell viability incubated for 24 hrs by CCK8 assay; assay type: functional, cell-based; details: A549, 24 h
NCI-H1299 = assay: Cytotoxicity in human NCI-H1299 cells assessed as reduction in cell viability incubated for 24 hrs by CCK8 assay; assay type: functional, cell-based; details: NCI-H1299, 24 h
NCI-H1975 = assay: Cytotoxicity in human NCI-H1975 cells assessed as reduction in cell viability incubated for 24 hrs by CCK8 assay; assay type: functional, cell-based; details: NCI-H1975, 24 h
PC-9 = assay: Cytotoxicity in human PC-9 cells assessed as reduction in cell viability incubated for 24 hrs by CCK8 assay; assay type: functional, cell-based; details: PC-9, 24 h
RKO = assay: Cytotoxicity in human RKO cells assessed as reduction in cell viability incubated for 24 hrs by CCK8 assay; assay type: functional, cell-based
MGC-803 = assay: Cytotoxicity in human MGC-803 cells assessed as reduction in cell viability incubated for 24 hrs by CCK8 assay; assay type: functional, cell-based; details: MGC-803, 24 h
BXPC-3 [15] = assay: Induction of apoptosis in human BXPC-3 cells assessed as viable cells level at 0.25 uM incubated for 24 hrs by PI and annexin V-FITC staining based flow cytometry (reference value: 93.43%); assay type: functional
BXPC-3 [16] = assay: Induction of apoptosis in human BXPC-3 cells assessed as early apoptotic cells level at 0.25 uM incubated for 24 hrs by PI and annexin V-FITC staining based flow cytometry (reference value: 5.69%); assay type: functional
BXPC-3 [17] = assay: Induction of apoptosis in human BXPC-3 cells assessed as late apoptotic cells level at 0.25 uM incubated for 24 hrs by PI and annexin V-FITC staining based flow cytometry (reference value: 0.83%); assay type: functional
BXPC-3 [18] = assay: Induction of apoptosis in human BXPC-3 cells assessed as necrotic cells level at 0.25 uM incubated for 24 hrs by PI and annexin V-FITC staining based flow cytometry (reference value: 0.05%); assay type: functional
BXPC-3 [19] = assay: Induction of apoptosis in human BXPC-3 cells assessed as viable cells level at 0.5 uM incubated for 24 hrs by PI and annexin V-FITC staining based flow cytometry (reference value: 93.43%); assay type: functional
BXPC-3 [20] = assay: Induction of apoptosis in human BXPC-3 cells assessed as early apoptotic cells level at 0.5 uM incubated for 24 hrs by PI and annexin V-FITC staining based flow cytometry (reference value: 5.69%); assay type: functional
BXPC-3 [21] = assay: Induction of apoptosis in human BXPC-3 cells assessed as late apoptotic cells level at 0.5 uM incubated for 24 hrs by PI and annexin V-FITC staining based flow cytometry (reference value: 0.83%); assay type: functional
BXPC-3 [22] = assay: Induction of apoptosis in human BXPC-3 cells assessed as necrotic cells level at 0.5 uM incubated for 24 hrs by PI and annexin V-FITC staining based flow cytometry (reference value: 0.05%); assay type: functional
[23] = target: Protein kinase C delta type (Homo sapiens, UniProt Q05655); assay: Inhibition of PKCdelta (unknown origin) by HTRF assay
[24] = Effect in PKCtheta protein expression in human BXPC-3 cells at 0.25 to 1 uM incubated for 4 hrs by Western blot analysis; assay type: ADME, cell-based; details: bxpc-3, 4 h, dose 0.25-1 µM
[25] = Antitumor activity against patient-derived pancreatic cancer cells xenografted in BALB/c mouse model of patient-derived xenograft assessed as inhibition of tumor growth at 6 mg/kg, iv dosed once every 2 days for 18 days relative to control; assay type: functional; details: Homo sapiens, Pancreatic cancer cell, 432 h, time 18 day, read-out: TGI
[26] = Toxicity in BALB/c mouse model of patient-derived xenograft implanted with patient-derived pancreatic cancer cells assessed as effect on body weight at 6 mg/kg, iv dosed once every 2 days for 18 days relative to control; assay type: organism-based; details: in vivo, 432 h, time 18 day
[27] = Toxicity in BALB/c mouse model of patient-derived xenograft implanted with patient-derived pancreatic cancer cells assessed as effect on normal anatomical structures of liver at 6 mg/kg, iv dosed once every 2 days for 18 days relative to control; assay type: organism-based; details: in vivo, 432 h, time 18 day
[28] = Toxicity in BALB/c mouse model of patient-derived xenograft implanted with patient-derived pancreatic cancer cells assessed as effect on normal anatomical structures of lung at 6 mg/kg, iv dosed once every 2 days for 18 days relative to control; assay type: organism-based; details: in vivo, 432 h, time 18 day
[29] = Toxicity in BALB/c mouse model of patient-derived xenograft implanted with patient-derived pancreatic cancer cells assessed as effect on normal anatomical structures of spleen at 6 mg/kg, iv dosed once every 2 days for 18 days relative to control; assay type: organism-based; details: in vivo, 432 h, time 18 day
[30] = Toxicity in BALB/c mouse model of patient-derived xenograft implanted with patient-derived pancreatic cancer cells assessed as effect on normal anatomical structures of kidney at 6 mg/kg, iv dosed once every 2 days for 18 days relative to control; assay type: organism-based; details: in vivo, 432 h, time 18 day

Protein kinase C delta type, sequence (Q05655 whole entry): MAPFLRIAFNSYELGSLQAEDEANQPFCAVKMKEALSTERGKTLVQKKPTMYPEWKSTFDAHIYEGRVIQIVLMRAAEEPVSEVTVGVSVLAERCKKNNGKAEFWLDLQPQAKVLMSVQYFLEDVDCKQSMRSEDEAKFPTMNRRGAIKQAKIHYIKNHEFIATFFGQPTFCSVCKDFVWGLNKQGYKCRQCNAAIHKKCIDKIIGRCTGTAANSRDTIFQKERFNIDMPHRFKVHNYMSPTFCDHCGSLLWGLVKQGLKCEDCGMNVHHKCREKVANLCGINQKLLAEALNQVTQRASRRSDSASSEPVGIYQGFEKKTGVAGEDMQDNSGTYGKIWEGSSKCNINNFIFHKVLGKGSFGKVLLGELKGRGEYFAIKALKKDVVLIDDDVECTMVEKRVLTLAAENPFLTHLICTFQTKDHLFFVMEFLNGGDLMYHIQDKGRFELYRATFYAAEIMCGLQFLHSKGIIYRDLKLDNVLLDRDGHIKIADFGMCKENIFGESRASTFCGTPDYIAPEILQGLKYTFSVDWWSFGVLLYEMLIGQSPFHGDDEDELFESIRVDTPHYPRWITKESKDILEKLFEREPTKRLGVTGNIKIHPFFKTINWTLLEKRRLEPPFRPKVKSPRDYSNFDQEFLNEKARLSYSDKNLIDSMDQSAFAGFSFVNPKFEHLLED
Protein kinase C theta type, sequence (Q04759 whole entry): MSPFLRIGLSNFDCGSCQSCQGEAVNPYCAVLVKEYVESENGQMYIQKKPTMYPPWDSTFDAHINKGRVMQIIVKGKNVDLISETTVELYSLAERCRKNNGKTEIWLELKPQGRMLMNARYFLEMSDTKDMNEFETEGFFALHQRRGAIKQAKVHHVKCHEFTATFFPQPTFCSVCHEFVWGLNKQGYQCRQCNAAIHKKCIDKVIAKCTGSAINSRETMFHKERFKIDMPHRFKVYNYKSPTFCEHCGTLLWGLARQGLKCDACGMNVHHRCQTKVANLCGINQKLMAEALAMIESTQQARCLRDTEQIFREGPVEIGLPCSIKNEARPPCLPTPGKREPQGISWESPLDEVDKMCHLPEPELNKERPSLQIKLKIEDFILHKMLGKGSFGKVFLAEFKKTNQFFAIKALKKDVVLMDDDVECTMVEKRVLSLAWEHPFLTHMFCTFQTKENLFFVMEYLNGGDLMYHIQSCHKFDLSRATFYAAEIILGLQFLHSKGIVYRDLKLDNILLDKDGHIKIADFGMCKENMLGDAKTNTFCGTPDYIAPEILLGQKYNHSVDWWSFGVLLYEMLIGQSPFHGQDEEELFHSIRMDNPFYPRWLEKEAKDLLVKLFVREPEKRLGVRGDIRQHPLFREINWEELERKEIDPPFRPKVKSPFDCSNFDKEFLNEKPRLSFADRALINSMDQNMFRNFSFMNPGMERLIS

With `CC(=O)c1cc2c(o1)C(=O)c1ccccc1C2=O` [NAPABUCASIN] the Activity [1] was “Non-Toxic”, the inhibition in vivo at 30 mg/kg (BXPC-3 [2]) was 34.2% and the Activity [3] was “Non-Toxic”. The inhibition in vivo at 30 mg/kg [4] was 41.8%, the Activity [5] was “Non-Toxic” and the Activity [6] was “Non-Toxic”. The Activity [7] was “Non-Toxic”, the Activity [8] was “Non-Toxic” and the Activity [9] was “Non-Toxic”.

With `CN[C@@H]1C[C@H]2O[C@@](C)([C@@H]1OC)n1c3ccccc3c3c4c(c5c6ccccc6n2c5c31)C(=O)NC4=O` (stereo in doubt; 15) the Activity [10] was “Non-Toxic”, the IC50 [11] was 6 nM and the inhibition in vivo at 6 mg/kg (BXPC-3 [12]) was 49.6%. The Activity [13] was “Non-Toxic”, the IC50 (BXPC-3 [14]) was 430 nM and the IC50 (ASPC1) was 1200 nM. The IC50 (A549) was 780 nM, the IC50 (NCI-H1299) was 2030 nM and the IC50 (NCI-H1975) was 2010 nM. For the same molecule, the IC50 (PC-9) was 1880 nM, the IC50 (RKO) was 1470 nM and the IC50 (MGC-803) was 1520 nM. For the same molecule, the Activity (BXPC-3 [15]) was 63.54%, the Activity (BXPC-3 [16]) was 33.77% and the Activity (BXPC-3 [17]) was 2.66%. The Activity (BXPC-3 [18]) was 0.04%, the Activity (BXPC-3 [19]) was 46.45% and the Activity (BXPC-3 [20]) was 46.07%. For the same molecule, the Activity (BXPC-3 [21]) was 6.89%, the Activity (BXPC-3 [22]) was 0.59% and the IC50 [23] was 21 nM. The Activity [24] was “Non-Toxic”, the inhibition in vivo at 6 mg/kg [25] was 56.9% and the Activity [26] was “Non-Toxic”. The Activity [27] was “Non-Toxic”, the Activity [28] was “Non-Toxic” and the Activity [29] was “Non-Toxic”. The Activity [30] was “Non-Toxic”.
